Results from US5610174A, “Use of α1A -selective adrenoceptor agonists for the treatment of urinary incontinence” (priority 1995, dated 1997).
Where two headings read alike, the source gives them in different places.

Legend:
[1] = target: T1, human α1A adrenoceptor (Homo sapiens, UniProt P25100); assay: biochemical; format: binding
T1 sequence (P25100 1-572): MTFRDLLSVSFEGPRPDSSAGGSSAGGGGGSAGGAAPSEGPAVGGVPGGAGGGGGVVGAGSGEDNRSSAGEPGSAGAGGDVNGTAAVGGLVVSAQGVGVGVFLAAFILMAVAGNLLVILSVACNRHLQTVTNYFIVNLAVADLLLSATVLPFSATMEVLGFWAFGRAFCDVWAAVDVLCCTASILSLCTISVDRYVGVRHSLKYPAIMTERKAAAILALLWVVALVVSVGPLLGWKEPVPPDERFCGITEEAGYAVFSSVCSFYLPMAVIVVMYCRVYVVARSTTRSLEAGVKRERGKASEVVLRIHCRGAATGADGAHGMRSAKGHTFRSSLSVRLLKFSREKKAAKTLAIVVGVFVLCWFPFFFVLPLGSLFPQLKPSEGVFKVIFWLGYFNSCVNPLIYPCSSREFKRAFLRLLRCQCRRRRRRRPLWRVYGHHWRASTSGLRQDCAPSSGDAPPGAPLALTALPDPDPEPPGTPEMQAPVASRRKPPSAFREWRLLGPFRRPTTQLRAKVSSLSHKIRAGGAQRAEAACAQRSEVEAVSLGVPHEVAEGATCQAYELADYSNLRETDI
Method: (§1) These cell lines were prepared by transfecting the cloned cDNA or cloned genomic DNA or constructs containing both genomic DNA and cDNA encoding the human α-adrenoceptors as follows:
The cells were grown, in a controlled environment (37° C., 5% CO2), as monolayers in Dulbecco's modified Eagle's Medium (GIBCO, Grand Island, N.Y.) containing 25 mM glucose and supplemented with 10% bovine calf serum, 100 units/ml penicillin g, and 100 μg/ml streptomycin sulfate.
(§2) Transfected cells from culture flasks were scraped into 5 ml of 5 mM Tris-HCl, 5 mM EDTA, pH 7.5, and lysed by sonication. The cell lysates were centrifuged at 1000 rpm. for 5 min at 4° C., and the supernatant was centrifuged at 30,000 ×g for 20 min at 4° C. The pellet was suspended in 50 mM Tris-HCl , 1 mM MgCl2, and 0.1% ascorbic acid at pH 7.5. […] The reaction was stopped by filtration through GF/B filters using a cell harvester.

[2] = target: T2, human α1B adrenoceptor (Homo sapiens, UniProt P35368); assay: Radioligand binding ([3H]prazosin) at cloned human α1B
T2 construct: The entire coding region of the α1B receptor (1563 bp); expressed in transfected cells
T2 sequence (P35368 1-520): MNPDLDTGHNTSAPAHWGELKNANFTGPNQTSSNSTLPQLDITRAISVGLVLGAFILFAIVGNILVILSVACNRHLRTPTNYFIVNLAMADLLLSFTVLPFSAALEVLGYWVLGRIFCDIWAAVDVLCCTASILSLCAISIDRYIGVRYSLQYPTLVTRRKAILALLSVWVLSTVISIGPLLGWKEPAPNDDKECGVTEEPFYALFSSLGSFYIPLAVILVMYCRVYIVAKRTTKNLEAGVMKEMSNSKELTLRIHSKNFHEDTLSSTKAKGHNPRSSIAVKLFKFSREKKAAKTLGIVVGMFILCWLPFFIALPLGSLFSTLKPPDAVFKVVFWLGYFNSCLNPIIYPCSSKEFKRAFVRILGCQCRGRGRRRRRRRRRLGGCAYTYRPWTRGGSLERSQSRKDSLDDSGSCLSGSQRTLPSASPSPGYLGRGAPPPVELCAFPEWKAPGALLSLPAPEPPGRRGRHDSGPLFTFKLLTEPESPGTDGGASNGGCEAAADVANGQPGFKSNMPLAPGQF
Method: as §1
The construct involved ligating the full-length containing EcoRI brainstem cDNA fragment from λ ZapII into the expression vector. Stable cell lines were obtained as described above.
as §2

[3] = target: T3, human α1C adrenoceptor (Homo sapiens, UniProt P35348); assay: cell-based; format: cell-based; details: for Emax: read-out: intrinsic activity (i.a.) α1C
T3 sequence (P35348 1-466): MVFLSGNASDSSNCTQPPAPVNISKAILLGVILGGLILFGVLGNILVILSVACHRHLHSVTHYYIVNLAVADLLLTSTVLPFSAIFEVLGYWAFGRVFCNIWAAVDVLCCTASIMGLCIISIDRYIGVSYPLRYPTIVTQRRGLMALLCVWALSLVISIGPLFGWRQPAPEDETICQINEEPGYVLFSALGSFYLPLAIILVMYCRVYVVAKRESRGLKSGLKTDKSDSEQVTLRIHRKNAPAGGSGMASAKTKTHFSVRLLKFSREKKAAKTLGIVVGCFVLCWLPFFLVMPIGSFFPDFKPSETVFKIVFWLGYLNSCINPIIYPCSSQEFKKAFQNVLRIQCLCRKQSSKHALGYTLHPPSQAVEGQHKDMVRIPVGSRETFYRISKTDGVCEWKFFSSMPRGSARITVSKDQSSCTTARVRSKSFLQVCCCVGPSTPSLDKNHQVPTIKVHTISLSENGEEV
Method: α1 -Adrenoceptor-Mediated Phosphoinositide Accumulation in Cultured Cell Lines
The agonist activity of test compounds was assayed by measuring their ability to generate phosphoinositide production in cells stably transfected with each of the three cloned human α1 -adrenoceptor subtypes. Cells were plated in 96-well plates and grown to confluence. The day before the assay the growth medium was changed to 100 μl of medium containing 1% serum and 0.5 μCi [^3 H] myo-inositol, and the plates were incubated overnight in a CO2 incubator (5% CO2 at 37° C.). Immediately before the assay, the medium was removed and replaced by 200 μl of PBS containing 10 mM LiCl, and the cells were equilibrated with the new medium for 20 min. During this interval cells were also equilibrated with the antagonist, added as 10 μl aliquot of a 20-fold concentrated solution in PBS.
The [^3 H] inositol-phosphate (IP) accumulation was started by adding 10 μl of a solution containing the agonist. To the first well 10 μl were added to measure basal accumulation, and 11 different concentrations of agonist were assayed in the following 11 wells of each plate row. All assays were performed in duplicate by repeating the same additions in two consecutive plate rows. The plates were incubated in a CO2 incubator for 1 hr. The reaction was terminated by adding 15 μl of 50% (v/v) trichloroacetic acid (TCA), followed by a 40 min incubation at 4° C.
After neutralizing TCA with 40 μl of 1 M Tris, the content of the wells was transferred to a Multiscreen HV filter plate (Millipore) containing Dowex AG1-X8 (200-400 mesh, formate form). The filter plates were prepared adding 200 μl of Dowex AG1-X8 suspension (50% v/v, water:resin) to each well. The filter plates were placed on a vacuum manifold to wash or eluted the resin bed. Each well was washed 2 times with 200 μl of water, followed by 2×200 μ of 5 mM sodium tetraborate/60 mM ammonium formate. The [3H] IPs were eluted into empty 96-well plates with 200 μl of 1.2 M ammonium formate/0.1 formic acid. The content of the wells was added to 3 mls of scintillation cocktail, and the radioactivity was determined by liquid scintillation counting.

[4] = Table 2, antagonists, versus 3H-prazosin
[5] = relative to reference full agonist (e.g., norepinephrine = unity)
[6] = agonist, phosphoinositide accumulation, read-out: pEC50 α1C (converted)
[7] = Table 3, agonists, read-out: pKi α1A (converted)

Row | SMILES | Emax [3, 5] [%] | Ki [1] [µM] | EC50 [3, 6] [µM] | Ki [2] [µM] | further results
1 | COc1cc2c(cc1OC)CN(c1cc(N)c3cc(OC)c(OC)cc3n1)CC2 [Abanoquil, 2-(6,7-Dimethoxy-3,4-dihydro-1H-isoquinolin-2-yl)-6,7-dimethoxyquinolin-4-ylamine hemifumarate hydrate] |  |  |  |  | pKI (antagonist affinity, 3H-prazosin binding) hα1A [1, 4]: 10.4; pKI (antagonist affinity, 3H-prazosin binding) hα1B [2, 4]: 10.1
2 | CNC[C@H](O)c1cccc(O)c1 [(-)-phenylephrine] | 90 | 3.98 |  |  | 
3 | COc1ccc(SC)c2c1C[C@@H]1[C@@H](C2)OCCN1C (relative stereo) [SDZ NVI-085, (±)-trans-4-Methyl-6-methoxy-9-thiomethoxy-3,4,4a, 5,10,10a-hexahydro-2H-naphtho[2,3-b][1,4]oxazine] | 110 |  | 0.398 |  | Ki [1, 7]: 2 µM; Ki ([2]; Table 3, agonists, read-out: pKi α1B (converted)): 12.6 µM
4 | COc1ccc(OC)c(C(O)CN)c1 (racemic) [ST-1059, (±)-2-Amino-1-(2, 5 dimethoxyphenyl) ethanol] | 90 | 7.94 |  | 12.6 | EC50 [3]: 2 µM
5 | CNCCc1ccc(O)c(NS(C)(=O)=O)c1 [SK&F 102652] |  |  |  |  | stimulation of inositol phosphate production, α1C [3]: fully stimulate; Emax [3]: 110%
6 | COc1ccccc1N1CCN(CCCNc2c(C)c(=O)n(C)c(=O)n2C)CC1 [Compound 5-MU] |  |  |  |  | Ki ([1]; Table 2, antagonists, versus 3H-prazosin, read-out: pKI (antagonist affinity, 3H-prazosin binding) hα1A (converted)): 0.0158 µM; Ki ([2]; Table 2, antagonists, versus 3H-prazosin, read-out: pKI (antagonist affinity, 3H-prazosin binding) hα1B (converted)): 0.126 µM
7 | CN[C@@H](C)[C@H](O)c1ccccc1 [(-)-ephedrine] | 10 | 50.1 | 100 | 100 | 
8 | CS(=O)(=O)Nc1c(O)ccc2c1CCCC2C1=NCCN1 (racemic) [Compound A-61603, (±)-N-[5-(4,5-Dihydro-1H-imidazol-2-yl)-2-hydroxy-5,6,7,8-tetra-hydronaphthalen-1-yl]methanesulfonamide] | 120 |  |  | 15.8 | stimulation of inositol phosphate production, α1C ([3]; result in words): fully stimulate; Ki [1, 7]: 12.6 µM
9 | C[C@H](N)[C@H](O)c1ccccc1 [(-)-norephedrine] | 40 | 25.1 | 50.1 | 50.1 | 
